The structures appear in SMILES notation. Where only a bound is given, the exact number is not on record here.

The assay deals with Glutamate receptor ionotropic, NMDA 1 (Rattus norvegicus, UniProt P35439).
The Ki is the equilibrium dissociation constant of an inhibitor or competing ligand from its target. Read a high Ki as lower affinity. In turn, `N[C@H](CC(=O)O)C(=O)O` gave an inhibitory constant (Ki) of more than 10 µM. The value for `N[C@@H](CCP(=O)(O)O)C(=O)O` [2-Amino-4-phosphono-butyric acid] was 1.5 µM; that for `N[C@@H](Cn1oc(=O)[nH]c1=O)C(=O)O` [2-amino-3-(3,5-dioxo[1,2,4]oxadiazolidin-2-yl)propionic acid] was 0.26 µM; that for `CP(=O)(O)CCC(N)C(=O)O` (stereo not drawn) [2-amino-4-(methylphosphino) butanoic acid] was 3.8 µM. Turning to `N[C@H](CCCP(=O)(O)O)C(=O)O` [CB3371309], the Ki was more than 10 µM. In turn, `N[C@H](CCP(=O)(O)O)C(=O)O` [D-AP4] came in with a Ki of more than 10 µM. The value for `N[C@@H](CC(=O)O)C(=O)O` [L-Aspartic acid, 2] was 8 µM; that for `CC(C[C@H](N)C(=O)O)P(=O)(O)O` (stereo partly drawn) [gamma-methyl-APB] was 8.6 µM.

For the origin of these results see BindingDB's records for doi:10.1021/bi00331a002 (University of Minnesota, 1985).
